Test results reported in patent US8580839B2, “Photosensitizer formulations and their use” (Biolitec Pharma Marketing Ltd, priority 2005, dated 2013).

Test: Fluorescence detection of m-THPC tissue accumulation in patients after intravenous injection
Format: in vivo
Settings: for fluorescence found/# patients tested: 0.05 mg/kg
Experimental: Comparison of tissue accumulation of m-THPC in patients after administration of the standard m-THPC formulation (“m-THPC”) and a low concentration formulation with low dosage of m-THPC (“m-THPC-dl”).
In this example, the two formulations were studied and compared to show m-THPC uptake in patient tissue after administration. The standard formulation (“m-THPC”) contained the standard concentration of m-THPC for photodynamic therapy, which is 4 mg/ml. The second formulation (“m-THPC-dl”) is a low concentration formulation containing 0.8 mg/ml of m-THPC. Each formulation was prepared with a mixture of pure propylene glycol and pure ethanol (3:2, v/v) as the excipient. Each patient received a reduced dosage of 0.05 mg of m-THPC per kg of body weight.
After administration of the two different formulations, the fluorescence accumulation in patients was monitored and the large difference in the pharmacokinetics between the m-THPC and m-THPC-dl formulations was found.
Comparison of tissue accumulation of m-THPC in patients after administration of the standard m-THPC formulation (“m-THPC”) and a low concentration formulation when m-THPC is diluted with aqueous lipid containing solubilizing preparation Lipofundin®.
In this example, the two formulations were studied and compared to show m-THPC uptake in patient tissue after administration with […]. The standard formulation (“m-THPC”) contained the standard concentration of m-THPC for photodynamic therapy is 4 mg/ml. The second formulation (“m-THPC-Lipo”) is a low concentration formulation containing 0.08 mg/ml of m-THPC (dilution for 50 times, from standard level). It was prepared by the dilution of standard m-THPC solution with the concentration of 4 mg/ml by aqueous lipid containing solubilizing preparation. Lipofundin® MCT (10%, B. Braun Melsungen AG, Melsungen, Germany). Each patient received intravenously the low dosage of 0.05 mg of m-THPC per kg of body weight.
After administration of the two different formulations, the fluorescence accumulation in patients was monitored and a no difference in the pharmacokinetics between the m-THPC and m-THPC-Lipo formulations was found.

Compound: Oc1cccc(-c2c3nc(c(-c4cccc(O)c4)c4ccc([nH]4)c(-c4cccc(O)c4)c4nc(c(-c5cccc(O)c5)c5ccc2[nH]5)CC4)C=C3)c1 [m-THPC, Meta-tetra(hydroxyphenyl)chlorin]
- patients with measurable fluorescence in the tumors (1 hour after drug injection): not detected in any patients
- patients with strong fluorescence in the tumors (3 hours after injection): about 30%
- fluorescence in perifocal and intact skin (2 days post-injection): there were patients where fluorescence in perifocal and intact skin was not observed
- fluorescence found/# patients tested (Intact skin, 15 min after injection): 0/11
- fluorescence found/# patients tested (Intact skin, 1 hour after injection): 0/11
- fluorescence found/# patients tested (Intact skin, 3 hours after injection): 2/11
- fluorescence found/# patients tested (Intact skin, 1 day after injection): 8/11
- fluorescence found/# patients tested (Intact skin, 2 days after injection): 9/11
- fluorescence found/# patients tested (Perifocal skin, 15 min after injection): 0/11
- fluorescence found/# patients tested (Perifocal skin, 1 hour after injection): 0/11
- fluorescence found/# patients tested (Perifocal skin, 3 hours after injection): 2/11
- fluorescence found/# patients tested (Perifocal skin, 1 day after injection): 10/11
- fluorescence found/# patients tested (Perifocal skin, 2 days after injection): All
- fluorescence found/# patients tested (Tumor, 15 min after injection): 0/11
- fluorescence found/# patients tested (Tumor, 1 hour after injection): 0/11
- fluorescence found/# patients tested (Tumor, 3 hours after injection): 4/11
- fluorescence found/# patients tested (Tumor, 1 day after injection): All
- fluorescence found/# patients tested (Tumor, 2 days after injection): All
